Assay results taken from PubChem BioAssay (NCI).
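Compound exposure: 48 hours, 5 concentrations, 96-well plates. GI50 is the concentration that inhibits growth by half. TGI marks complete inhibition of growth.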

Key:
Assay in all cases: NCI tumour cell line growth inhibition, 48 h
SW-620 colon = test system: SW-620 colon
ACHN renal = test system: ACHN renal
EKVX NSCLC = test system: EKVX NSCLC
HL-60(TB) leukemia = test system: HL-60(TB) leukemia
HOP-62 NSCLC = test system: HOP-62 NSCLC
BT-549 breast = test system: BT-549 breast
M14 melanoma = test system: M14 melanoma
NCI-H226 lung = test system: NCI-H226 lung
DLD-1 colon = test system: DLD-1 colon
KM20L2 colon = test system: KM20L2 colon

SMILES	GI50 (SW-620 colon)	TGI (SW-620 colon)	GI50 (ACHN renal)	TGI (ACHN renal)	GI50 (EKVX NSCLC)	TGI (EKVX NSCLC)	GI50 (HL-60(TB) leukemia)	TGI (HL-60(TB) leukemia)	GI50 (HOP-62 NSCLC)	TGI (HOP-62 NSCLC)	GI50 (BT-549 breast)	TGI (BT-549 breast)	GI50 (M14 melanoma)	TGI (M14 melanoma)	GI50 (NCI-H226 lung)	TGI (NCI-H226 lung)	TGI (DLD-1 colon)	TGI (KM20L2 colon)
COc1ccc(-n2c(=O)c3ccccc3n(Cc3ccc(C(=O)NO)cc3)c2=O)cc1	2.13 µM	6.97 µM	3.23 µM	13.5 µM	1.92 µM	4.31 µM	3.51 µM	> 100 µM	2.29 µM	6.19 µM	2.08 µM	4.91 µM	1.71 µM	3.44 µM	1.56 µM	3.75 µM	–	–
Cc1cccc(Oc2ccc(Nc3ncnc4ccc(NC(=O)CN(C)C)cc34)cc2Cl)c1	1.64 µM	3.05 µM	0.804 µM	4 µM	0.512 µM	4.19 µM	2.07 µM	4.72 µM	1.89 µM	4.16 µM	2.4 µM	8.45 µM	1.71 µM	3.5 µM	11.9 µM	28.3 µM	–	–
CC(C)CCCC(C)C1CCC2C3CC([N+](=O)[O-])=C4CC(O)CCC4(C)C3CCC12C (configuration not stated)	–	59.1 µM	–	> 100 µM	–	57.2 µM	–	60.6 µM	–	42.3 µM	–	–	–	28.8 µM	–	–	35.9 µM	34.7 µM
O=C(CC1(O)C(=O)Nc2c(Cl)ccc(Cl)c21)c1ccc(Cl)cc1 (configuration not stated)	–	> 100 µM	–	38.7 µM	–	> 100 µM	–	–	–	> 100 µM	–	–	–	69.1 µM	–	> 100 µM	> 100 µM	> 100 µM
CCOC(=O)C#Cc1c(C(=O)OCC)nnn1[C@@H]1O[C@H](COC)[C@@H](OC)[C@H]1OC	1.99 µM	4.06 µM	1.95 µM	3.9 µM	16.3 µM	32.9 µM	1.98 µM	5.41 µM	25.7 µM	63.1 µM	13.1 µM	26 µM	3.27 µM	10.8 µM	1.65 µM	3.18 µM	–	–
COc1cc(/C=C/c2cc(/C=C/c3ccc(O)c(OC)c3)n(C(=O)Nc3ccc(C)cc3)n2)ccc1O	0.465 µM	3.44 µM	0.396 µM	7.42 µM	0.992 µM	5.02 µM	0.261 µM	0.657 µM	0.759 µM	2.5 µM	0.306 µM	2.34 µM	0.287 µM	1.05 µM	1.19 µM	4.82 µM	–	–
CC(=O)O[C@H]([C@H](OC(C)=O)[C@H](C)OC(C)=O)[C@@H](/C=C/[C@H]1CC=CC(=O)O1)OC(C)=O	37.6 µM	> 100 µM	> 100 µM	> 100 µM	> 100 µM	> 100 µM	59.4 µM	> 100 µM	48.5 µM	> 100 µM	21.9 µM	72.6 µM	67.3 µM	> 100 µM	> 100 µM	> 100 µM	–	–
CN1CCN(C(=O)/C=C/c2ccc([N+](=O)[O-])o2)CC1	15.8 µM	37.1 µM	3.29 µM	13.1 µM	23.2 µM	87.6 µM	10.7 µM	34 µM	17.1 µM	39.9 µM	10.1 µM	21.8 µM	3.11 µM	11.7 µM	22.4 µM	60 µM	–	–
O=S(=O)(O)C(c1ccccc1)C(O)c1ccccc1 (configuration not stated)	–	> 100 µM	–	> 100 µM	–	> 100 µM	–	> 100 µM	–	> 100 µM	–	> 100 µM	–	> 100 µM	–	> 100 µM	–	–
Nc1ccccc1C(=O)/C=C/c1ccccc1O	–	> 100 µM	–	–	–	> 100 µM	–	58.8 µM	–	> 100 µM	–	–	–	> 100 µM	–	> 100 µM	> 100 µM	> 100 µM
O=C(NO)c1ccc(CNc2cccc3nc(C4CC4)n(-c4ccccc4)c(=O)c23)cc1	1.81 µM	6.01 µM	1.92 µM	4.67 µM	2.55 µM	7.43 µM	2.39 µM	5.64 µM	1.89 µM	4.72 µM	3.24 µM	14.3 µM	1.91 µM	4.14 µM	2.93 µM	15 µM	–	–
CC(=O)NC(CCCNC(=O)OCc1ccccc1)C(=O)NCc1ccccc1 (configuration not stated)	–	> 100 µM	–	> 100 µM	–	> 100 µM	–	–	–	> 100 µM	–	–	–	> 100 µM	–	> 100 µM	> 100 µM	> 100 µM
